Measured values: patent US12252484B2, “Pyrazolopyridine compounds for the treatment of autoimmune disease” (Hoffmann-La Roche Inc., priority 2018, dated 2025)

Target: T1, human TLR9 (Homo sapiens, UniProt Q9NR96)
T1 sequence (Q9NR96 26-1032): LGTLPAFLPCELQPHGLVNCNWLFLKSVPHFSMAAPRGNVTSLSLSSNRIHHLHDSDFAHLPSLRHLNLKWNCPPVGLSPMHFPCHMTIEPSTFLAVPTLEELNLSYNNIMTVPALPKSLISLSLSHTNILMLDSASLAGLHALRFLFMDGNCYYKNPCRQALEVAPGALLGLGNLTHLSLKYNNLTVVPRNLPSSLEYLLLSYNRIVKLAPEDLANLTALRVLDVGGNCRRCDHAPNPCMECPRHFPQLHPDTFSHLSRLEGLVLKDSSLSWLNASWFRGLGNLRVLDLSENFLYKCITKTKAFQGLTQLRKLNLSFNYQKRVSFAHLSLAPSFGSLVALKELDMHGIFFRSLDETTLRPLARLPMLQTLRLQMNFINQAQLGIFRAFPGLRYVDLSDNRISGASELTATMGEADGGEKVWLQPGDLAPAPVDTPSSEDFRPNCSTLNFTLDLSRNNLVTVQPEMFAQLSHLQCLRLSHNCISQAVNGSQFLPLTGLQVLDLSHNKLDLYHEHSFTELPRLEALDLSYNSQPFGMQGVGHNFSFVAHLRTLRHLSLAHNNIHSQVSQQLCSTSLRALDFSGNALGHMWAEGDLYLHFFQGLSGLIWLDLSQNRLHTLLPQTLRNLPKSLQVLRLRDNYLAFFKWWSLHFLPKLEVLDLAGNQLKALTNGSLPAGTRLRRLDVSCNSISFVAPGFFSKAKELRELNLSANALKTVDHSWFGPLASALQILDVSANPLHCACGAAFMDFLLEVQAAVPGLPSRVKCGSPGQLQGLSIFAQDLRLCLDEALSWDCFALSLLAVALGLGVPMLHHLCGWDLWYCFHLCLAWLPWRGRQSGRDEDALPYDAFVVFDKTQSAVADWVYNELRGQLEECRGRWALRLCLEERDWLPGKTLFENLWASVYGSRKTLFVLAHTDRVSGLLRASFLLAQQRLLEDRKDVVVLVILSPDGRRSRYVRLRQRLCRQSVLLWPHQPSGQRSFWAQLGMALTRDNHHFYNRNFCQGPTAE
Experiment: HEK293-Blue-hTLR-9 cells assay (SEAP reporter, ODN2006 stimulation)
Assay type: cell-based
Details: HEK293-Blue-hTLR-9 cells, ODN2006 ligand, 20 hrs incubation; read-out: TLR9 IC50
Experimental: The following tests were carried out in order to determine the activity of the compounds of formula (I) in HEK293-Blue-hTLR-7/8/9 cells assay.
HEK293-Blue-hTLR-9 Cells Assay:
A stable HEK293-Blue-hTLR-9 cell line was purchased from InvivoGen (Cat. #: hkb-htlr9, San Diego, California, USA). These cells were originally designed for studying the stimulation of human TLR9 by monitoring the activation of NF-κB. A SEAP (secreted embryonic alkaline phosphatase) reporter gene was placed under the control of the IFN-β minimal promoter fused to five NF-κB and AP-1-binding sites. The SEAP was induced by activating NF-κB and AP-1 via stimulating HEK-Blue hTLR9 cells with TLR9 ligands. Therefore the reporter expression was declined by TLR9 antagonist under the stimulation of a ligand, such as ODN2006 (Cat. #: tlrl-2006-1, Invivogen, San Diego, California, USA), for incubation of 20 hrs. The cell culture supernatant SEAP reporter activity was determined using QUANTI-Blue™ kit (Cat. #: rep-qb1, Invivogen, San Diego, California, USA) at a wavelength of 640 nm, a detection medium that turns purple or blue in the presence of alkaline phosphatase.
HEK293-Blue-hTLR9 cells were incubated at a density of 250,000˜450,000 cells/mL in a volume of 170 μL in a 96-well plate in Dulbecco's Modified Eagle's medium (DMEM) containing 4.5 g/L glucose, 50 U/mL penicillin, […], 2 mM L-glutamine, 10% (v/v) heat-inactivated fetal bovine serum with addition of 20 μL test compound in a serial dilution in the presence of final DMSO at 1% and 10 μL of 20 uM ODN2006 in above DMEM, perform incubation under 37° C. in a CO2 incubator for 20 hrs. Then 20 μL of the supernatant from each well was incubated with 180 μL Quanti-blue substrate solution at 37° C. for 2 hrs and the absorbance was read at 620˜655 nm using a spectrophotometer. The signalling pathway that TLR9 activation leads to downstream NF-κB activation has been widely accepted, and therefore similar reporter assay was modified for evaluating TLR9 antagonist.

For C[C@@H]1CN(c2ccc(C#N)n3nccc23)C[C@H](C(=O)NC2CC3CCC(C2)N3)O1 (stereo partly drawn) [Example 23, Exo-(2R,6R)-N-[8-azabicyclo[3.2.1]octan-3-yl]-4-(7-cyanopyrazolo[1,5-a]pyridin-4-yl)-6-methyl-morpholine-2-carboxamide], the IC50 was greater than 100 µM.

Work on C[C@@H]1CN(c2ccc(C#N)n3nccc23)C[C@H](C(=O)N2CC(N)C2)O1 [Example 8, 4-[(2R,6R)-2-(3-aminoazetidine-1-carbonyl)-6-methyl-morpholin-4-yl]pyrazolo[1,5a]pyridine-7-carbonitrile] yielded an IC50 of 70 µM.

In the case of C[C@@H]1CN(c2ccc(C#N)n3nccc23)C[C@H](C(=O)NC2CCCNCC2)O1 (stereo partly drawn) [Example 6, (2R,6R)-N-(azepan-4-yl)-4-(7-cyanopyrazolo[1,5-a]pyridin-4-yl)-6-methyl-morpholine-2-carboxamide], the IC50 is reported as 4.8 µM.

For C[C@@H]1CN(c2ccc(C#N)n3nccc23)C[C@H](C(=O)NC2CCOCC2)O1 [Example 4, (2R,6R)-4-(7-cyanopyrazolo[1,5-a]pyridin-4-yl)-6-methyl-N-tetrahydropyran-4-yl-morpholine-2-carboxamide], the IC50 was greater than 100 µM.

Work on C[C@H]1C[C@@H](N)CN(c2ccc(C#N)n3nccc23)C1 [Example 43, 4-[(3R,5S)-3-amino-5-methyl-1-piperidyl]pyrazolo[1,5-a]pyridine-7-carbonitrile] yielded an IC50 of 10 µM.

Work on C[C@@H]1CN(c2ccc(C#N)n3nccc23)C[C@H](C(=O)NC2CCNCC2)O1 [Example 24, (2R,6R)-4-(7-cyanopyrazolo[1,5-a]pyridin-4-yl)-6-methyl-N-(4-piperidyl)morpholine-2-carboxamide] yielded an IC50 of 13 µM.

C[C@@H]1CN(c2ccc(C#N)n3nccc23)C[C@H](C(=O)NCC2CCNC2)O1 (stereo partly drawn) [Example 40, (2R,6R)-4-(7-cyanopyrazolo[1,5-a]pyridin-4-yl)-6-methyl-N-(pyrrolidin-3-ylmethyl)morpholine-2-carboxamide] was tested, and the IC50 was 48 µM.

With C[C@@H]1CN(c2ccc(C#N)n3nccc23)C[C@H](C(=O)NCC2CN(C)CCO2)O1 (stereo partly drawn) [Example 7, (2R,6R)-4-(7-cyanopyrazolo[1,5-a]pyridin-4-yl)-6-methyl-N-[(4-methylmorpholin-2-yl)methyl]morpholine-2-carboxamide] the IC50 was 58 µM.

With C[C@@H]1CN(c2ccc(C#N)n3nccc23)C[C@H](C(=O)NC2C3CCCC2CNC3)O1 (stereo partly drawn) [Example 37, (2R,6R)-N-(3-azabicyclo[3.3.1]nonan-9-yl)-4-(7-cyanopyrazolo[1,5-a]pyridin-4-yl)-6-methyl-morpholine-2-carboxamide] the IC50 was 6.8 µM.

C[C@@H]1CN(c2ccc(Cl)n3nccc23)C[C@H](C(=O)NC2CCN(C)CC2)O1 [Example 38, (2R,6R)-4-(7-chloropyrazolo[1,5-a]pyridin-4-yl)-6-methyl-N-(1-methyl-4-piperidyl)morpholine-2-carboxamide] was tested, and the IC50 was 36 µM.

CCC(O)CNC(=O)[C@H]1CN(c2ccc(C#N)n3nccc23)C[C@@H](C)O1 (stereo partly drawn) [Example 13, (2R,6R)-4-(7-cyanopyrazolo[1,5-a]pyridin-4-yl)-N-(2-hydroxybutyl)-6-methyl-morpholine-2-carboxamide] showed an IC50 greater than 100 µM.

With C[C@H]1C[C@@H](NCC#N)CN(c2ccc(C#N)n3nccc23)C1 [Example 46, 4-[(3R,5S)-3-(cyanomethylamino)-5-methyl-1-piperidyl]pyrazolo[1,5-a]pyridine-7-carbonitrile] the IC50 was 31 µM.

Compound C[C@@H]1CN(c2ccc(C#N)n3nccc23)C[C@H](C(=O)NC2CC3CCC2CN3C)O1 (stereo partly drawn) [Example 34, (2R,6R)-4-(7-cyanopyrazolo[1,5-a]pyridin-4-yl)-6-methyl-N-(2-methyl-2-azabicyclo[2.2.2]octan-5-yl)morpholine-2-carboxamide] has an IC50 of 11 µM.

With C[C@@H]1CN(c2ccc(C#N)n3nccc23)C[C@H](C(=O)NC2CC3CC2CN3)O1 (stereo partly drawn) [Example 36, (2R,6R)-N-(2-azabicyclo[2.2.1]heptan-5-yl)-4-(7-cyanopyrazolo[1,5-a]pyridin-4-yl)-6-methyl-morpholine-2-carboxamide] the IC50 was 12 µM.

For C[C@@H]1CN(c2ccc(C#N)n3nccc23)C[C@H](C(=O)NC2CC3CCC(C2)N3C)O1 (stereo partly drawn) [Example 33, (2R,6R)-4-(7-cyanopyrazolo[1,5-a]pyridin-4-yl)-6-methyl-N-(8-methyl-8-azabicyclo[3.2.1]octan-3-yl)morpholine-2-carboxamide], the IC50 was 7.7 µM.

C[C@H]1C[C@@H](NC(=O)[C@H](C)N)CN(c2ccc(C#N)n3nccc23)C1 [Example 44, (2S)-2-amino-N-[(3R,5S)-1-(7-cyanopyrazolo[1,5-a]pyridin-4-yl)-5-methyl-3-piperidyl]propanamide] showed an IC50 of 10 µM.

Compound C[C@@H]1CN(c2ccc(C#N)n3nccc23)C[C@H](C(=O)NC23CC(CO)(C2)C3)O1 [Example 15, (2R,6R)-4-(7-cyanopyrazolo[1,5-a]pyridin-4-yl)-N-[3-(hydroxymethyl)-1-bicyclo[1.1.1]pentanyl]-6-methyl-morpholine-2-carboxamide] has an IC50 greater than 100 µM.

C[C@@H]1CN(c2ccc(C#N)n3nccc23)C[C@H](C(=O)Nc2ccc(C(=O)N3CCNCC3)cc2)O1 [Example 42, (2R,6R)-4-(7-cyanopyrazolo[1,5-a]pyridin-4-yl)-6-methyl-N-[4-(piperazine-1-carbonyl)phenyl]morpholine-2-carboxamide] was tested, and the IC50 was 1.8 µM.

With C[C@@H]1CN(c2ccc(C#N)n3nccc23)C[C@H](C(=O)NC2CN(C)CC23CC3)O1 (stereo partly drawn) [Example 32, (2R,6R)-4-(7-cyanopyrazolo[1,5-a]pyridin-4-yl)-6-methyl-N-(5-methyl-5-azaspiro[2.4]heptan-7-yl)morpholine-2-carboxamide] the IC50 was 9.7 µM.
